Columns and labels:
[1] = test system: homozygous mutant (S4) plants; assay: Foliar spray whole plant test; format: in vivo, Nicotiana tabacum
Experimental: (§1) Further studies of the effect of the S4 mutation on whole plant response to chlorsulfuron were conducted with plants of the parental variety and progeny of homozygous mutant and homozygous normal isolates (Nos. 16 and 1, respectively) of the previously described backcross program. Accordingly, plants of the latter two types were derived, but separated by four generations, from the initial S4 mutant plant regenerated from callus culture.
(§2) Plants at the 4-5 leaf stage were treated with foliar sprays of an aqueous solution containing 10% (v/v) acetone, 0.2% polyoxyethylene sorbitan monolaurate (Tween 20 ), and 1,3, 10, 30 or 100 ppm chlorsulfuron. Each plant received 5 mL of a spray solution. Two weeks after treatment, plants were evaluated for phytotoxicity and shoot heights were measured. […] At this lowest level of application, apical buds and youngest leaves of these sensitive plants were chlorotic. […] These symptoms were more pronounced with increasing chlorsulfuron concentrations. […] In contrast, homozygous mutant plants were unaffected by treatment with chlorsulfuron, even at the highest test concentration of 100 ppm.

[2] = test system: parental and homozygous normal plants; assay: Foliar spray whole plant test; format: in vivo, Nicotiana tabacum; conditions: 5 mL spray
Experimental: as §1, §2

[3] = test system: acetolactate synthase (ALS), Isolate 27 (S4/S4) extract; assay: ALS activity assay in cell extracts; format: biochemical, Nicotiana tabacum
Experimental: (§3) Cell suspension cultures of normal (H1) and homozygous mutant (Isolate 16) cell lines were washed in C1 liquid medium. After washing, cells were extracted in a 100 mM potassium phosphate buffer (pH 7.5) containing 0.5 mM MgCl2, 1 mM sodium pyruvate, 0.5 mM thiamine pyrophosphate, 10 micromolar flavine-adenine dinucleotide (FAD) and 10 percent (by volume) glycerol. Polyclar AT (BDH Chemicals Ltd) was added to a final concentration of 250 mg per gram fresh weight of tissue. After centrifugation at 27,000xg for 15 minutes at 4°, an equal volume of a saturated solution of amminium sulfate was added to the supernatant fraction. The resultant precipitate (representing a 0 to 50 percent ammonium sulfate fraction) was redissolved in 100 mM potassium phosphate buffer (pH 7.5) containing 0.5 mM MgCl2, 1 mM sodium pyruvate, and salts were removed by passage through a Sephadex G-25 (Pharmacia PD-10) column.
(§4) ALS activity was assayed in a total volume of 500 microliters containing 100 microliters of the column eluate, 65 mM potassium phosphate buffer (pH 7.5) containing 10 mM MgCl2, 40 mM sodium pyruvate, 250 micromolar thiamine pyrophosphate, 23 micromolar FAD, and 1, 5, 10, 50, 100, 500 or 1000 ppb chlorsulfuron or sulfometuron-methyl. After incubation at 30° for 90 minutes, 250 microliters of 6N H2 SO4 was added to each assay tube, and the tubes were incubated at 55° for 10 minutes to terminate the enzymatic reaction and achieve complete conversion of acetolactate to acetoin. Acetoin content was then measured by a modification of the procedure described by Westerfield, J. Biol. Chem. 161:495 (1945). To each tube was added sequentially 100 microliters 50 percent NaOH, 150 microliters 0.5 percent creatine, and 150 microliters 5 percent alpha-napthol (in 2.5N NaOH). Color development was accelerated by incubation at 55° for 10 minutes. Tubes were then centrifuged, and the optical density was read at 530 nm. Background optical densities, which were subtracted from the optical density values of the reactions, were determined for each extract from parallel assays to which the enzyme extract was added after the addition of 6N H2 SO4. Protein concentrations were measured with Bio-Rad Protein Assay reagent with bovine serum albumin as a standard. Data points and specific activities, which are set forth below and in FIG. 2, represent the average values of at least three independent determinations. ALS activities are presented in FIG. 2 as percent activity in the absence of herbicide.
(§5) Responses to chlorsulfuron were determined for ALS activities in extracts of cells suspension cultures derived from nine individuals that differed with resepct to the S4 mutation. As described above, these individuals were produced by self-fertilization of an S4/+ heterozygote, and their genotypes were established by means of progeny analysis. Callus and plant phenotypes were determined by growth responses of cell cultures and seedlings, respectively, on herbicide-supplemented medium. […] In contrast, all individuals homozygous for the S4 mutation contained a highly resistant form of the enzyme. […] The correlation between both callus and plant phenotype and the response of ALS activity in vitro to the herbicide is both absolute and quantitative.

[4] = test system: acetolactate synthase (ALS), Isolate 1 (+/+) extract; assay: ALS activity assay in cell extracts; format: biochemical, Nicotiana tabacum
Experimental: as §3, §4, §5

[5] = test system: acetolactate synthase (ALS), Isolate 30 (S4/S4) extract; assay: ALS activity assay in cell extracts; format: biochemical, Nicotiana tabacum
Experimental: as §3, §4, §5

[6] = test system: acetolactate synthase (ALS), Isolate 24 (S4/+) extract; assay: ALS activity assay in cell extracts; format: biochemical, Nicotiana tabacum
Experimental: as §3, §4, §5

[7] = test system: acetolactate synthase (ALS), Isolate 9 (S4/+) extract; assay: ALS activity assay in cell extracts; format: biochemical, Nicotiana tabacum
Experimental: as §3, §4, §5

H1 (parent) callus = assay: Callus growth test with chlorsulfuron and structural analogues; format: cell-based, Nicotiana tabacum; conditions: 10 ppb compound, 2 weeks in the dark
Experimental: (§6) In these growth tests, petri dishes containing C1 agar medium and 10 ppb of the sulfonamide herbicide chlorsulfuron and Compounds A through E were prepared. A sterile filter paper disc was placed in the center of each plate, and inoculated with 250 mg of callus tissue homozygous for the S4 mutation, or callus tissue derived from the haploid parent H1. The resulting cultures were incubated at 25° in the dark for 2 weeks. At the conclusion of the incubation period, filter discs containing callus cells were removed from culture dishes, placed on a Buchner funnel, and gentle suction applied to remove excess water. The resulting callus mass was then carefully scraped from the filter disc and weighed. Four replicates were included in each experiment.

S4/S4 callus = assay: as above; format: cell-based, Nicotiana tabacum; conditions: 10 ppb compound, 2 weeks in the dark
Experimental: as §6

Salmonella typhimurium = conditions: in the presence of valine; reversed by isoleucine; cited from earlier work

## COc1nc(C)nc(NC(=O)NS(=O)(=O)c2ccccc2Cl)n1 [Chlorsulfuron, chlorsulfuron]
[1]; homozygous state
  increase of resistance of plants by S4 mutation: at least 100 fold
[1]; up to highest test concentration of 100 ppm chlorsulfuron
  phytotoxicity two weeks after foliar spray: unaffected
[2]; 1 ppm chlorsulfuron, 4-5 leaf stage
  phytotoxicity two weeks after foliar spray: developed symptoms of phytotoxicity
[2]; 3 ppm chlorsulfuron
  phytotoxicity two weeks after foliar spray: chlorosis was more severe and growth retardation readily apparent
[2]; 100 ppm chlorsulfuron
  phytotoxicity two weeks after foliar spray: extreme growth inhibition, chlorosis, and necrosis
[3]; 10 ppb
  Uninhibited activity (%) in the Presence of Chlorsulfuron: 88%
[3]; 30 ppb
  Uninhibited activity (%) in the Presence of Chlorsulfuron: 82%
[3]; 100 ppb
  Uninhibited activity (%) in the Presence of Chlorsulfuron: 79%
[4]; 10 ppb
  Uninhibited activity (%) in the Presence of Chlorsulfuron: 42%
[4]; 30 ppb
  Uninhibited activity (%) in the Presence of Chlorsulfuron: 29%
[4]; 100 ppb
  Uninhibited activity (%) in the Presence of Chlorsulfuron: 23%
[5]; 10 ppb
  Uninhibited activity (%) in the Presence of Chlorsulfuron: 89%
[5]; 30 ppb
  Uninhibited activity (%) in the Presence of Chlorsulfuron: 83%
[5]; 100 ppb
  Uninhibited activity (%) in the Presence of Chlorsulfuron: 81%
[6]; 10 ppb
  Uninhibited activity (%) in the Presence of Chlorsulfuron: 60%
[6]; 30 ppb
  Uninhibited activity (%) in the Presence of Chlorsulfuron: 47%
[6]; 100 ppb
  Uninhibited activity (%) in the Presence of Chlorsulfuron: 41%
[7]; 10 ppb
  Uninhibited activity (%) in the Presence of Chlorsulfuron: 59%
[7]; 30 ppb
  Uninhibited activity (%) in the Presence of Chlorsulfuron: 50%
[7]; 100 ppb
  Uninhibited activity (%) in the Presence of Chlorsulfuron: 42%
H1 (parent) callus
  Mean Fresh Weight: 0 g
S4/S4 callus
  Mean Fresh Weight: 4.42 g

## COC(=O)c1ccccc1S(=O)(=O)NC(=O)Nc1nc(C)cc(C)n1 [Sulfometuron-methyl, sulfometuron-methyl]
Salmonella typhimurium
  growth effect: inhibits growth
